Patent US20020002277A1, “Inhibitors of platelet activation and recruitment” (priority 1998, published 2002)

Key:
[1] = system: platelets; assay: Ex vivo additive inhibition of platelet aggregation in platelet rich plasma from patients; assay type: cell-based, human; conditions: PRP from patients receiving the drug (clopidogrel, ticlopidine, abciximab groups also received aspirin)
Procedure: Each group consisted of three to six patients. […] SoICD39 (10 μg/ml or 100 μg/ml) was then added and the additional inhibition of platelet activation (over baseline, in response to the platelet agonists) was measured in each of the five groups.

[2] = Murine model of stroke (middle cerebral artery occlusion); assay type: in vivo, C57BL/6J mice
Procedure: Anesthetized mice were maintained at 37±2° C. during and for 90 min following surgery. A midline neck incision was made and the right carotid artery exposed. Middle cerebral artery occlusion was accomplished by advancing a 13-mm heat-blunt tipped 6-0 nylon suture via an arteriotomy in the external carotid stump. The external carotid artery was cauterized to secure hemostasis, and arterial flow re-established. […] Surgical staples were used for wound closure.

[3] = system: murine platelets; assay: Ex vivo aggregation of murine platelets after treatment; assay type: in vivo, C57BL/6J mice; conditions: PRP 1 hour after solCD39 4 mg/kg or aspirin 5 mg/kg
Procedure: C57BL/6J mice (6-8 wk) were obtained from Jackson Laboratories (Bar Harbor, Me.). […] 80 μL of 3.8% trisodium citrate was added to each mL of blood. […] The PRP contained 400-700×10^3 platelets per μL. All experiments were completed within 2 hours of blood collection. PRP (200 μL) was preincubated, for 3 min. at 37° C., with 100 μL Tris-buffered saline buffer ([…], 5 mM glucose, pH 7.4) in an aggregometer cuvette (Lumiaggregometer; Chrono-Log, Havertown, Pa.), and the platelet agonists ADP, collagen, or sodium arachidonate were added at the final concentrations indicated.

[4] = Phosphate release assay for ATPase activity; assay type: biochemical; conditions: for Activity (pmol ATP/min/μg) × 10^3: specific activity based on ELISA concentration, COS-1 1x supernatant, 10 cm plates, 5 days; for CPM × 10^3 (net counts), ATPase activity in CM: 5 days (Table 3)
Procedure: This example describes an ATPase assay that may be used to track enzyme activity. Samples (approximately 100 μl of either concentrated CM or purified polypeptide) are combined with 20 μl of 10X assay buffer (200 mM HEPES, 1.2 M NaCl, 50 mM KCl, 15 mM CaCl2, 15 mM MgCl2 and 3 mM ATP) and sterile water is added to a final volume of 200 μl. Radiolabeled ATP (0.8 μCi γ [^32P] ATP; Amersham, Arlington Heights, Ill.) is added and the mixture incubated for 20 minutes at 37° C. Stop mix (0.5 ml of 20% activated charcoal/1 M HCl) is added and the reaction is placed on ice for 10 minutes. After centrifugation (14K rpm for 10 minutes), the supernatant is assayed for free ^32P using a scintillation counter. Data are expressed as raw counts or net counts, or as picomoles of ATP degraded per minute.
The transfections were repeated and the CM (10, 20 and 30 μL, unconcentrated) was assayed essentially as described in Example 7. […] ATPase levels in CM from COS-1 cells transfected with pIL2LFlagSolCD39 increased with time in culture over at least 4 days post-transfection.
To determine whether activity was affected by removal of the N-terminal FLAG® tag, COS-1 cells were transfected with pIL2LFlagSolCD39 and pIL2LSolCD39 and supernatants (sups) were harvested after 5 days. Samples of 10, 20 and 30 μL of 1x sups were assayed for ATPase activity as described in Example 7.
The expression of Trim1 and Trim2 constructs was analyzed in COS-1 cells cultured in 10 cm plates. After 5 days of incubation, 1x supernatants were examined via ELISA (using anti-CD39) and the phosphate-release assay described in Example 7. […] Expression levels, however, appeared to be reduced 3-4 fold.

[5] = Enzymatic (ATPase and ADPase) activity of site-directed CD39 mutants; assay type: biochemical; conditions: alanine replacement mutant
Procedure: Mutants were assayed for enzymatic (ATPase and ADPase) and platelet inhibitory (dose-dependent inhibition of platelet aggregation) activities. For one series of mutants, residues within the conserved apyrase regions were replaced with alanine.

Q: Which results are given for COC(=O)[C@H](c1ccccc1Cl)N1CCc2sccc2C1 [Clopidogrel, clopidogrel]?
A: Platelet aggregation, baseline ([1]; agonist ADP): 58 ± 6 arbitrary units; Platelet aggregation, baseline ([1]; agonist Collagen): 57 ± 9 arbitrary units; Platelet aggregation, baseline ([1]; agonist TRAP): 51 ± 2 arbitrary units

Q: For CC(=O)Oc1ccccc1C(=O)O [aspirin, acetylsalicylic acid], which “postischemic cerebral blood flow” value ([2]; 24 hours after stroke induction) is on record?
A: no improvement was seen in postischemic cerebral blood flow

Q: And the “intracerebral hemorrhage following stroke” value ([2]; measured spectrophotometrically, any dose of solCD39 tested, aspirin 5 mg/kg)?
A: increased intracerebral hemorrhage

Q: And the cerebral infarct volume ([2]; preoperative administration, solCD39 4 & 8 mg/kg, aspirin 5 mg/kg)?
A: tendency to decrease cerebral infarct volume, although this effect was not statistically significant

Q: And the “ex vivo platelet aggregation, collagen” value ([3]; 2.5 μg/ml collagen)?
A: strongly aggregated

Q: What about the “ex vivo platelet aggregation, ADP” value ([3]; 10 μM ADP) of the same molecule?
A: strongly aggregated

Q: What about the “ex vivo platelet aggregation, arachidonate” value ([3]; 0.1 mM sodium arachidonate) of the same molecule?
A: only blocked platelet reactivity to arachidonate

Q: What about the “Platelet aggregation, baseline” value ([1]; agonist ADP) of the same molecule?
A: 69 ± 5 arbitrary units

Q: And the “Platelet aggregation, baseline” value ([1]; agonist Collagen)?
A: 62 ± 8 arbitrary units

Q: And the “Platelet aggregation, baseline” value ([1]; agonist TRAP)?
A: 66 ± 6 arbitrary units

B1: pIL2LTrim2: huIL2 leader with an intervening Ala-Ser-Ser linker preceding solCD39 (protein)
chain: TQNKALPENVKYGIVLDAGSSHTSLYIYKWPAEKENDTGVVHQVEECRVKGPGISKFVQKVNEIGIYLTDCMERAREVIPRSQHQETPVYLGATAGMRLLRMESEELADRVLDVVERSLSNYPFDFQGARIITGQEEGAYGWITINYLLGKFSQKTRWFSIVPYETNNQETFGALDLGGASTQVTFVPQNQTIESPDNALQFRLYGKDYNVYTHSFLCYGKDQALWQKLAKDIQVASNEILRDPCFHPGYKKVVNVSDLYKTPCTKRFEMTLPFQQFEIQGIGNYQQCHQSILELFNTSYCPYSQCAFNGIFLPPLQGDFGAFSAFYFVMKFLNLTSEKVSQEKVTEMMKKFCAQPWEEIKTSYAGVKEKYLSEYCFSGTYILSLLLQGYHFTADSWEHIHFIGKIQGSDAGWTLGYMLNLTNMIPAEQPLSTPLSHST
modifications: left off: small tags and cut ends
Q: For B1, which “Activity (pmol ATP/min/μg) × 10^3” value [4] is on record?
A: 6.67 pmol ATP/min/μg × 10^3

B2: pIL2LTrim1: huIL2 leader joined to solCD39 with an intervening alanine residue (SEQ ID NO:27) (protein)
chain: MALWIDRMQLLSCIALSLALVTNSATQNKALPENVKYGIVLDAGSSHTSLYIYKWPAEKENDTGVVHQVEECRVKGPGISKFVQKVNEIGIYLTDCMERAREVIPRSQHQETPVYLGATAGMRLLRMESEELADRVLDVVERSLSNYPFDFQGARIITGQEEGAYGWITINYLLGKFSQKTRWFSIVPYETNNQETFGALDLGGASTQVTFVPQNQTIESPDNALQFRLYGKDYNVYTHSFLCYGKDQALWQKLAKDIQVASNEILRDPCFHPGYKKVVNVSDLYKTPCTKRFEMTLPFQQFEIQGIGNYQQCHQSILELFNTSYCPYSQCAFNGIFLPPLQGDFGAFSAFYFVMKFLNLTSEKVSQEKVTEMMKKFCAQPWEEIKTSYAGVKEKYLSEYCFSGTYILSLLLQGYHFTADSWEHIHFIGKIQGSDAGWTLGYMLNLTNMIPAEQPLSTPLSHST
Q: For B2, which “Activity (pmol ATP/min/μg) × 10^3” value [4] is on record?
A: 8.38 pmol ATP/min/μg × 10^3

B3: Abciximab: platelet-specific chimeric antibody, glycoprotein IIb/IIIa antagonist (trade name ReoPro) (antibody, chains of the INN, looked up, V domains shown)
VH: EVQLQQSGTVLARPGASVKMSCEASGYTFTNYWMHWVKQRPGQGLEWIGAIYPGNSDTSYIQKFKGKAKLTAVTSTTSVYMELSSLTNEDSAVYYCTLYDGYYVFAYWGQGTLVTVSA
VL: EIVLTQSPVTLSVTPGDSVSLSCRASRDISNNLHWFQQTSHESPRLLIKYASQSMSGIPSRFSGSGSGTDFTLSINSVETEDFGMYFCQQTNSWPYTFGGGTKLEIK
modifications: Fab
Q: Which “Platelet aggregation, baseline” value ([1]; agonist ADP) does the source give for B3 here?
A: 0 ± 0 arbitrary units

Q: And the “Platelet aggregation, baseline” value ([1]; agonist Collagen)?
A: 0 ± 0 arbitrary units

Q: What about the “Platelet aggregation, baseline” value ([1]; agonist TRAP) of the same molecule?
A: 46 ± 6 arbitrary units

B4: pIL2LSolCD39: untagged soluble human CD39 with huIL2 leader, 12 mature IL2 residues and three amino acid linker (SEQ ID NO:7) (protein)
chain: MALWIDRMQLLSCIALSLALVTNSAPTSSSTKKTQLTSSTQNKALPENVKYGIVLDAGSSHTSLYIYKWPAEKENDTGVVHQVEECRVKGPGISKFVQKVNEIGIYLTDCMERAREVIPRSQHQETPVYLGATAGMRLLRMESEELADRVLDVVERSLSNYPFDFQGARIITGQEEGAYGWITINYLLGKFSQKTRWFSIVPYETNNQETFGALDLGGASTQVTFVPQNQTIESPDNALQFRLYGKDYNVYTHSFLCYGKDQALWQKLAKDIQVASNEILRDPCFHPGYKKVVNVSDLYKTPCTKRFEMTLPFQQFEIQGIGNYQQCHQSILELFNTSYCPYSQCAFNGIFLPPLQGDFGAFSAFYFVMKFLNLTSEKVSQEKVTEMMKKFCAQPWEEIKTSYAGVKEKYLSEYCFSGTYILSLLLQGYHFTADSWEHIHFIGKIQGSDAGWTLGYMLNLTNMIPAEQPLSTPLSHST
Q: Which results are given for B4?
A: CPM × 10^3 (net counts), ATPase activity in CM ([4]; 10 μL 1x COS-1 supernatant): 20.1 CPM × 10^3; CPM × 10^3 (net counts), ATPase activity in CM ([4]; 20 μL 1x COS-1 supernatant): 36.0 CPM × 10^3; CPM × 10^3 (net counts), ATPase activity in CM ([4]; 30 μL 1x COS-1 supernatant): 51.0 CPM × 10^3; Activity (pmol ATP/min/μg) × 10^3 [4]: 5.67 pmol ATP/min/μg × 10^3

B5: S218A mutant: CD39 mutant, Serine218 replaced with alanine (protein, UniProt P49961 1-510, looked up, variant S218A)
Ectonucleoside triphosphate …: MEDTKESNVKTFCSKNILAILGFSSIIAVIALLAVGLTQNKALPENVKYGIVLDAGSSHTSLYIYKWPAEKENDTGVVHQVEECRVKGPGISKFVQKVNEIGIYLTDCMERAREVIPRSQHQETPVYLGATAGMRLLRMESEELADRVLDVVERSLSNYPFDFQGARIITGQEEGAYGWITINYLLGKFSQKTRWFSIVPYETNNQETFGALDLGGAATQVTFVPQNQTIESPDNALQFRLYGKDYNVYTHSFLCYGKDQALWQKLAKDIQVASNEILRDPCFHPGYKKVVNVSDLYKTPCTKRFEMTLPFQQFEIQGIGNYQQCHQSILELFNTSYCPYSQCAFNGIFLPPLQGDFGAFSAFYFVMKFLNLTSEKVSQEKVTEMMKKFCAQPWEEIKTSYAGVKEKYLSEYCFSGTYILSLLLQGYHFTADSWEHIHFIGKIQGSDAGWTLGYMLNLTNMIPAEQPLSTPLSHSTYVFLMVLFSLVLFTVAIIGLLIFHKPSYFWKDMV
Q: Which ADPase activity retained [5] does the source give for B5 here?
A: less than 10%
